What was measured:
[1] = Inhibitory activity on the proliferation of Human colon carcinoma […] cancer cells using MTT or sulforhodamine B assay; format: functional, cell-based; details: Cancer cell lines
HT-1080 = experiment: Inhibitory activity on the proliferation of Human fibrosarcoma HT1080 cancer cells using MTT or sulforhodamine B assay; format: functional, cell-based
HL-60 = experiment: Inhibitory activity on the proliferation of Human myeloid leukemia HL-60 cancer cells using MTT or sulforhodamine B assay; format: functional, cell-based
A549 [2] = experiment: Inhibitory activity on the proliferation of Human lung carcinoma A549 cancer cells using MTT or sulforhodamine B assay; format: functional, cell-based
A549 [3] = experiment: Effect of compound on cell cycle progression in Human lung A549 cancer cells at G2/M phase after 16 hours of administration; format: functional
A549 [4] = experiment: Effect of compound on cell cycle progression in Human lung A549 cancer cells at S phase after 16 hours of administration; format: functional
A549 [5] = experiment: Effect of compound on cell cycle progression in Human lung A549 cancer cells at S phase after 24 hours of administration; format: functional
A549 [6] = experiment: Effect of compound on cell cycle progression in Human lung A549 cancer cells at Sub-G0 phase after 16 hours of administration; format: functional
A549 [7] = experiment: Effect of compound on cell cycle progression in Human lung A549 cancer cells at S phase after 8 hours of administration; format: functional
A549 [8] = experiment: Effect of compound on cell cycle progression in Human lung A549 cancer cells at G2/M phase after 24 hours of administration; format: functional
A549 [9] = experiment: Effect of compound on cell cycle progression in Human lung A549 cancer cells at G0/G1 phase after 24 hours of administration; format: functional
A549 [10] = experiment: Effect of compound on cell cycle progression in Human lung A549 cancer cells at G0/G1 phase after 8 hours of administration; format: functional
A549 [11] = experiment: Effect of compound on cell cycle progression in Human lung A549 cancer cells at Sub-G0 phase after 8 hours of administration; format: functional
A549 [12] = experiment: Effect of compound on cell cycle progression in Human lung A549 cancer cells at G2/M phase after 8 hours of administration; format: functional
A549 [13] = experiment: Effect of compound on cell cycle progression in Human lung A549 cancer cells at G0/G1 phase after 16 hours of administration; format: functional
A549 [14] = experiment: Effect of compound on cell cycle progression in Human lung A549 cancer cells at Sub-G0 phase after 24 hours of administration; format: functional

| IC50 (HT-1080) | IC50 (HL-60) | IC50 (A549 [2]) | SMILES | IC50 [1] | Activity (A549 [3]) | Activity (A549 [4]) | Activity (A549 [5]) | Activity (A549 [6]) | Activity (A549 [7]) | Activity (A549 [8]) | Activity (A549 [9]) | Activity (A549 [10]) | Activity (A549 [11]) | Activity (A549 [12]) | Activity (A549 [13]) | Activity (A549 [14]) |
| --- | --- | --- | --- | --- | --- | --- | --- | --- | --- | --- | --- | --- | --- | --- | --- | --- |
| > 100 µM | > 100 µM | > 100 µM | O=C1C(c2c(O)[nH]c3ccc(S(=O)(=O)O)cc23)=Nc2ccccc21 | > 100 µM | – | – | – | – | – | – | – | – | – | – | – | – |
| 5.9 µM | 9.2 µM | 5.4 µM | O=Nc1c(-c2c(O)[nH]c3ccc([N+](=O)[O-])cc23)[nH]c2ccccc12 | 25.5 µM | 21.7% | 31.8% | 16.1% | 0% | 26.8% | 22% | 39.9% | 46.1% | 0% | 27.1% | 46.5% | 22% |
| 4.8 µM | > 100 µM | 62 µM | O=Nc1c(-c2c(O)[nH]c3ccccc23)[nH]c2ccccc12 [INDIRUBIN-3-MONOXIME] | > 100 µM | – | – | – | – | – | – | – | – | – | – | – | – |
| 42.2 µM | > 100 µM | 31 µM | O=C1Nc2ccccc2/C1=C1/Nc2ccccc2C1=O [INDIRUBIN] | > 100 µM | – | – | – | – | – | – | – | – | – | – | – | – |

Reference: ChEMBL document CHEMBL1140278, “Induction of apoptosis by a novel indirubin-5-nitro-3'-monoxime, a CDK inhibitor, in human lung cancer cells” (Bioorg Med Chem Lett, 2005)
